{"source": "patent US10995067B2", "about": "“Treatment of Fabry disease” (Academia Sinica, priority 2016, dated 2021)", "key": {"[1]": {"biological_target": "T1, α-galactosidase from coffee beans (Coffea arabica, UniProt Q42656)", "T1 construct": "purchased", "T1 sequence (Q42656 16-378)": "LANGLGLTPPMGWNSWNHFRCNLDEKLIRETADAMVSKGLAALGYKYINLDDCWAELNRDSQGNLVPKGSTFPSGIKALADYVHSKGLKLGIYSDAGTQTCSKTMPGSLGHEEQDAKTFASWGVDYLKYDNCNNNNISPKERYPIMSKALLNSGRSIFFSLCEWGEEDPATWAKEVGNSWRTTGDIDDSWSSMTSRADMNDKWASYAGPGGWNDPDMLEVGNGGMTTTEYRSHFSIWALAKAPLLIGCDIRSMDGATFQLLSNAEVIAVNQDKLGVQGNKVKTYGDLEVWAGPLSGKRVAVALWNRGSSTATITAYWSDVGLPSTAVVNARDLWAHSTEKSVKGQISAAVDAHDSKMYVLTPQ", "assay": "Glycosidase activity assay: α-galactosidase (coffee beans)", "format": "biochemical", "conditions": "inhibitors tested at 100 μM"}, "[2]": {"biological_target": "T2, rh-α-Gal A (recombinant human α-galactosidase A) (Homo sapiens, UniProt P06280)", "T2 sequence (P06280 32-429)": "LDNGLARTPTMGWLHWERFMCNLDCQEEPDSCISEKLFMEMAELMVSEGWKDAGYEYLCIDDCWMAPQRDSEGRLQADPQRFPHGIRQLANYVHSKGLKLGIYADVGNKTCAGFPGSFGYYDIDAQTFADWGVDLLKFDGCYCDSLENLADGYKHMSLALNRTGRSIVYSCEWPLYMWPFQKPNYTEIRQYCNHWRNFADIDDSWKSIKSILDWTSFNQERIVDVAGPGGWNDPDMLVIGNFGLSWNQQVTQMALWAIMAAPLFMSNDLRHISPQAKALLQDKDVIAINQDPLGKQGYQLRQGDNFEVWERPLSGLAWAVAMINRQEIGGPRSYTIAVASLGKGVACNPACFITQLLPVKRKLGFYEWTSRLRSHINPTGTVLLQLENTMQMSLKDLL", "assay": "biochemical", "conditions": "read-out: Inhibition activity (%) rh-α-Gal A", "quoted_text": "Libraries (20 μL) were diluted to give the final concentration of 20 μM, mixed with substrate 4-methylberiilyl α-D-galactopyranoside (20 μL) and recombinant human alpha-galactosidase (10 μL) in pH 4.6 buffer (50 μL), then assay was carried out at 37° C. for 15 min. […] The control group was a mixture of HBTU, DIEA, acid libraries (in total 20 μL), substrate (20 μL), buffer (50 μL) and enzyme (10 μL) excluded the amide products. Blank was a solution of substrate (20 μL) and enzyme (10 μL) in pH 4.6 buffer (70 μL). Inhibition was performed as relative enzyme activity to control."}, "[3]": {"biological_target": "T3, α-mannosidase from Jack beans (Canavalia ensiformis, UniProt C0HJB3)", "T3 construct": "purchased", "T3 sequence (C0HJB3 1-981)": "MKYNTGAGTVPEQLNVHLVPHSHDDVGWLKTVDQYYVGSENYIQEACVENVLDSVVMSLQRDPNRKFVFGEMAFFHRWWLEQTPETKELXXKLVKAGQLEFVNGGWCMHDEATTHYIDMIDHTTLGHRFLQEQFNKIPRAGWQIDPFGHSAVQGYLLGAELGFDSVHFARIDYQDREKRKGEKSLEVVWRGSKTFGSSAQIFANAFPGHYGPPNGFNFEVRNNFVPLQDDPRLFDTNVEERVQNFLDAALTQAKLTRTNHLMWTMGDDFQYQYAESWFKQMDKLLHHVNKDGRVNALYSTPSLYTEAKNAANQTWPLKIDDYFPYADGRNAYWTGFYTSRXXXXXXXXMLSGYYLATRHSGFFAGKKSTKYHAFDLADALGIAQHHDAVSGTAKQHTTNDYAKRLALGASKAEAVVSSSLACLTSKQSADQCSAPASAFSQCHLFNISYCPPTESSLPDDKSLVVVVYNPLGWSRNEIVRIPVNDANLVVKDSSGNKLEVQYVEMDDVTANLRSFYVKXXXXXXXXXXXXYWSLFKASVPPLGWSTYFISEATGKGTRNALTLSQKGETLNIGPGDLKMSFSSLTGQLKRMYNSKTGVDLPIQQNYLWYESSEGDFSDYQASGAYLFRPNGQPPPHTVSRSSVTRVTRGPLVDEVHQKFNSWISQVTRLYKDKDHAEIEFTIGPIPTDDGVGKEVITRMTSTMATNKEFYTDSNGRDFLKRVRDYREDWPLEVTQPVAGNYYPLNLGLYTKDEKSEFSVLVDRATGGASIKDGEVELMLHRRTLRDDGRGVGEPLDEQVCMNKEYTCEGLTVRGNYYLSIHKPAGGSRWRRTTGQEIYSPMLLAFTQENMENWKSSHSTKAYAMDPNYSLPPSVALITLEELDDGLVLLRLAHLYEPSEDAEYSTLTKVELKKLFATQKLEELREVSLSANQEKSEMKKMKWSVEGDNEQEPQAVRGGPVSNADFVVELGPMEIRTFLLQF", "assay": "Glycosidase activity assay: α-mannosidase", "format": "biochemical", "conditions": "inhibitors tested at 100 μM"}, "[4]": {"biological_target": "T4, β-galactosidase from human lysate (lysed human lymphocytes) (Homo sapiens, UniProt P16278)", "T4 construct": "endogenous in cells; host or cells: normal human lymphocytes (lysate, 62 μg/ml)", "T4 sequence (P16278 29-677)": "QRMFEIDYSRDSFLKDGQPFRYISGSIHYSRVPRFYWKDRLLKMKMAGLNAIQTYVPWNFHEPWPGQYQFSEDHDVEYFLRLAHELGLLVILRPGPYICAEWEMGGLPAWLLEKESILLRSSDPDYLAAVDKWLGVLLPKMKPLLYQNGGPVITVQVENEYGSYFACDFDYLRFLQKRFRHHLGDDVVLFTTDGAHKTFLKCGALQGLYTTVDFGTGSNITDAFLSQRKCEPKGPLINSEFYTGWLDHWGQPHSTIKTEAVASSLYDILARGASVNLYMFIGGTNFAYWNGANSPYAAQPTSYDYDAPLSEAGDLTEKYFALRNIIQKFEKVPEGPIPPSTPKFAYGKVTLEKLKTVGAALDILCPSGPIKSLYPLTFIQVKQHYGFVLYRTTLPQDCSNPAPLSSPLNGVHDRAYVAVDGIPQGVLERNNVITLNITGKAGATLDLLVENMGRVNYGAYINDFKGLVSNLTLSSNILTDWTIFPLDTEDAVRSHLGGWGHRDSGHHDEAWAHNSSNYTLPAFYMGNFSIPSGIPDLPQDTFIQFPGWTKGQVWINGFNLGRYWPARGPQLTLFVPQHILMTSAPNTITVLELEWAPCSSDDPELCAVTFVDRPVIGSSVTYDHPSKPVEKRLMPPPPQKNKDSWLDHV", "assay": "Glycosidase activity assay: β-galactosidase", "format": "biochemical", "conditions": "inhibitors tested at 100 μM"}, "[5]": {"test_system": "Wild-type human lymphocytes (08C0058)", "assay": "Cytotoxicity assay using human lymphocytes (alamarBlue)", "format": "cell-based", "conditions": "concentration up to 200 μM; data not shown", "experimental": "Wild-type human lymphocytes (08C0058) were seeded in 96-well plates at a number of 50,000 cells/well. […] All compounds were dissolved in DMSO or H2O and control experiments were performed with DMSO. Cells were incubated at 37° C. in 5% CO2 for 48-72 h. Then, 10λ alamarBlue was added to cells suspended in medium, and the mixture was incubated for additional 3-5 hrs at 37° C. in 5% CO2."}}}
{"smiles": "O=C(CCCCC1CCCCC1)NC[C@H]1N[C@H](CO)[C@H](O)[C@@H]1O", "note": "[Compound 33]", "values": [{"measurement": "inhibition at 100 µM", "setting": "[1]", "result": 94, "unit": "%"}, {"measurement": "inhibition at 100 µM", "setting": "[2]", "result": 97, "unit": "%"}, {"measurement": "inhibition at 100 µM", "setting": "[3]", "result": 36, "unit": "%"}, {"measurement": "Inhibition activity (%) β-galactosidase", "setting": "[4]", "result": "No inhibition"}, {"measurement": "toxic effect in cell culture", "setting": "[5]", "result": "no toxic effect"}]}
